Assays:
[1] = target: Human immunodeficiency virus type 1 integrase (Human immunodeficiency virus 1, UniProt Q7ZJM1); experiment: Inhibition of human immunodeficiency virus - 1 (HIV-1) integrase
CCRF-CEM = experiment: Tested for antiviral activity against Human Immunodeficiency virus (HIV-1) replication in CEM cells.; type: functional, cell-based
[2] = Cytotoxicity in a cell viability MTT assay; type: functional; conditions: read-out: TC50 (the source's name)

Human immunodeficiency virus type 1 integrase, sequence (Q7ZJM1 whole entry): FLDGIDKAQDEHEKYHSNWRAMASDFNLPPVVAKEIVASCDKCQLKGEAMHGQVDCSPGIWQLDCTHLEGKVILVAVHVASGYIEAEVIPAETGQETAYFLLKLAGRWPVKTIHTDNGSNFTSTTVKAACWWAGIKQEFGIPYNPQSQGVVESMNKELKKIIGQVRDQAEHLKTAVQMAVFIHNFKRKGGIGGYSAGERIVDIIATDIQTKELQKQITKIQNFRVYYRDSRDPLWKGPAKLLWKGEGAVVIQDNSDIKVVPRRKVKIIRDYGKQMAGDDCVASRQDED

SMILES | IC50 [1] [µM] | IC50 (CCRF-CEM) [µM] | CC50 [2] [µM]
Cc1cc2c(F)cccc2c(C)c1-c1ccc(O)c(O)c1 | 500 | – | –
Cc1cc2cc(O)c(O)cc2c(C)c1-c1ccccc1F | 500 | – | –
Cc1cc2cc(O)c(O)cc2c(C)c1-c1ccc(O)c(O)c1 | 23 | 8.7 | 33
Cc1ccc(-c2c(C)cc3cc(O)c(O)cc3c2C)cc1 | 84 | – | –
Cc1cc2ccccc2c(C)c1-c1ccc(O)c(O)c1 | 500 | – | –
Cc1cc2cc(O)c(O)cc2c(C)c1-c1ccc(F)cc1 | 138 | – | –
Cc1ccc2cc(C)c(-c3ccc(O)c(O)c3)c(C)c2c1 | 157 | – | –
Cc1cc2cc(O)c(O)cc2c(C)c1-c1ccccc1 | 76 | – | –
Cc1cc2cc(O)c(O)cc2c(C)c1-c1ccccc1C(F)(F)F | 22 | 10.3 | 13.6
Cc1cc2ccc(F)cc2c(C)c1-c1ccc(O)c(O)c1 | 500 | – | –

The next molecules have a lower IC50 [1] than those just listed; values first:

IC50 [1] [µM] | IC50 (CCRF-CEM) [µM] | SMILES | CC50 [2] [µM]
13 | 5.7 | Cc1cc2cc(O)c(O)cc2c(C)c1-c1cccc(C(F)(F)F)c1 | 72.6
21 | 10.5 | Cc1cc2cc(O)c(O)cc2c(C)c1-c1ccc(C(F)(F)F)cc1 | 19
2.1 | 9.9 | Oc1ccc(-c2ccc3cc(O)c(O)cc3c2)cc1O | 51
1.3 | 98 | Oc1cc2c(cc1O)C1Cc3cc(O)c(O)cc3C(C2)O1 | > 100
